{
  "source": "patent US7776858B2",
  "about": "“Methods of treatment of chronic pain using eszopiclone” (Sepracor Inc., priority 2004, dated 2010)",
  "key": {"conscious dogs": {"system": "conscious dogs", "experiment": "Dose escalation safety study, cardiovascular and respiratory parameters after acute intravenous administration", "experimental": "To establish the safety of eszopiclone, a dose escalation study was carried out. Cardiovascular and respiratory parameters were evaluated in conscious dogs following acute intravenous administration of (R)-, (S)- or racemic zopiclone at three doses (3, 5 and 12 mg/kg)."}, "mice": {"system": "mice", "experiment": "Antagonism of oxotremorine induced salivation", "format": "in vivo", "settings": "doses up to 300 mg/kg, p.o.", "experimental": "Eszopiclone was evaluated for antimuscarinic activity in vivo."}, "[1]": {"settings": "acute intravenous, 3, 5 and 12 mg/kg"}},
  "data": [
    {"compound": "CN1CCN(C(=O)O[C@@H]2c3nccnc3C(=O)N2c2ccc(Cl)cn2)CC1", "note": "[(R)-Zopiclone]", "values": [
      {"measurement": "hemodynamic effect", "setting": "conscious dogs; acute intravenous, 12 mg/kg", "result": "did not produce a consistent hemodynamic effect"},
      {"measurement": "Blood gases and blood chemistries (pH, pCO2, pO2, hematocrit, and lactate)", "setting": "conscious dogs; [1]", "result": "remained unaffected"},
      {"measurement": "cardiotoxicity by electrocardiogram (ECG)", "setting": "conscious dogs; [1]", "result": "No evidence of cardiotoxicity"},
      {"measurement": "antagonism of oxotremorine induced salivation", "setting": "mice", "result": "neither (R)-, (S)-, nor racemic zopiclone significantly antagonized"}
    ]}
  ]
}
